# Read-outs that look alike come from different tables or passages of the source.
# Columns and labels:
# Assay type in all cases: in vivo
# [1] = system: Pharbitis purpurea (PHBPU); assay: Post-emergence herbicidal action against PHBPU
# In short: (§1)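 Greenhouse plants sprayed at the one-leaf stage, 2–3 weeks after sowing, with WP or EC formulations plus 0.5% additive at 600 l/ha water. Activity rated visually after about 3 weeks versus untreated controls (100% = dead, 0% = like control), at 320 g/ha or lower.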
# [2] = system: Echinochloa crus-galli (ECHCG); assay: Post-emergence herbicidal action against ECHCG
# In short: as §1
# [3] = system: Triticum aestivum (TRZAS); settings: crop plant compatibility, effect vs untreated controls
# In short: (§2)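 Visual rating (% effect vs. untreated plants; 100% = plant death) made about 3 weeks after treatment. Plants had been sprayed at one-leaf stage, 2–3 weeks post-sowing, with aqueous WP/EC preparations containing 0.5% additive, 600 l/ha water volume; a, b, c mark dose levels.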
# [4] = system: Zea mays (ZEAMX); settings: for Post-emergence action against ZEAMX in % (crop plant compatibility): 20 g/ha, effect in comparison to untreated controls; for Post-emergence action against ZEAMX in %: crop plant compatibility, effect vs untreated controls
# In short: as §2
# [5] = system: Oryza sativa (ORYSA); settings: crop plant compatibility
# In short: as §2
# [6] = system: Verconica persica (VERPE); assay: Post-emergence herbicidal action against VERPE
# In short: as §1
# [7] = system: Matricaria inodora (MATIN); assay: Post-emergence herbicidal action against MATIN
# In short: as §1
# [8] = system: Setaria viridis (SETVI); assay: Post-emergence herbicidal action against SETVI
# In short: as §1
# [9] = system: Digitaria sanguinalis (DIGSA); assay: Post-emergence herbicidal action against DIGSA; settings: visual rating about 3 weeks after treatment
# In short: as §1
# [10] = system: Amaranthus retroflexus (AMARE); assay: Post-emergence herbicidal action against AMARE
# In short: as §1
# [11] = system: Viola tricolor (VIOTR); assay: Post-emergence herbicidal action against VIOTR
# In short: as §1
# [12] = system: Avena fatua (AVEFA); assay: Post-emergence herbicidal action against AVEFA; settings: visual rating about 3 weeks after treatment
# In short: as §1
# [13] = system: Polygonum convolvulus (POLCO); assay: Post-emergence herbicidal action against POLCO
# In short: as §1
# [14] = system: Alopecurus myosuroides (ALOMY); assay: Post-emergence herbicidal action against ALOMY; settings: visual rating about 3 weeks after treatment vs untreated controls (100% = plants have died, 0% = like control plants)
# In short: as §1
# [15] = system: Lolium rigidum (LOLRI); assay: Post-emergence herbicidal action against LOLRI
# In short: as §1
# [16] = system: Abutilon theophrasti (ABUTH); assay: Post-emergence herbicidal action against ABUTH; settings: visual rating about 3 weeks after treatment vs untreated controls (100% = plants have died, 0% = like control plants)
# In short: as §1
# [17] = 20 g/ha, effect vs untreated controls
# [18] = 80 g/ha, effect in comparison to untreated controls
# [19] = 320 g/ha, effect in comparison to untreated controls
# [20] = 320 g/ha, visual rating about 3 weeks after treatment
SMILES,Post-emergence action against TRZAS in % ([3]; 20 g/ha),Post-emergence action against ZEAMX in % (crop plant compatibility) [4],"Post-emergence action against ORYSA in % [5, 17]","Post-emergence action against ORYSA in % [5, 18]",Post-emergence action against ZEAMX in % ([4]; 80 g/ha),Post-emergence action against PHBPU in % ([1]; dosage 320 g/ha),Post-emergence action against ECHCG in % ([2]; dosage 320 g/ha),"Post-emergence action against VERPE in % ([6]; 320 g/ha, VERPE)",Post-emergence action against VERPE in % ([6]; dosage 80 g/ha),Post-emergence action against MATIN in % ([7]; dosage 320 g/ha),Post-emergence action against SETVI in % ([8]; dosage 320 g/ha),Post-emergence action against DIGSA in % ([9]; 320 g/ha),"Post-emergence action against AMARE in % [10, 20]",Post-emergence action against VIOTR in % ([11]; 80 g/ha),Post-emergence action against VIOTR in % ([11]; 320 g/ha),Post-emergence action against AVEFA in % ([12]; 320 g/ha),Post-emergence action against POLCO in % ([13]; dosage 320 g/ha),Post-emergence action against ALOMY in % ([14]; 320 g/ha),Post-emergence action against ECHCG in % ([2]; dosage 80 g/ha),Post-emergence action against LOLRI in % ([15]; dosage 320 g/ha),other results
CCOC(=O)COc1nn(-c2ncccc2F)c(-c2ccnc(F)c2)c1Br [Example I-136],10%,10%,10%,20%,10%,90%,80%,–,–,80%,90%,80%,–,80%,80%,–,–,90%,–,80%,Post-emergence action against ZEAMX in % ([4]; 320 g/ha): 20%
O=C(O)COc1nn(-c2ncccc2F)c(-c2ccnc(F)c2)c1Br [Example I-139],0%,0%,0%,0%,0%,80%,80%,90%,80%,–,–,90%,90%,80%,90%,–,90%,90%,–,–,"Post-emergence action against ZEAMX in % ([4]; 320 g/ha): 10%; Post-emergence action against ORYSA in % [5, 19]: 10%; Post-emergence action against ABUTH in % ([16]; 320 g/ha): 80%; Post-emergence action against AMARE in % ([10]; 80 g/ha, visual rating about 3 weeks after treatment vs untreated controls (100% = plants have died, 0% = like control plants)): 80%; Post-emergence action against ALOMY in % ([14]; 80 g/ha): 90%"
C[C@@H](Oc1nn(-c2ncccc2F)c(-c2ccnc(F)c2)c1Br)C(=O)O [Example I-140],10%,–,0%,0%,–,–,80%,90%,–,–,–,80%,90%,90%,90%,90%,90%,100%,–,90%,"Post-emergence action against ORYSA in % [5, 19]: 10%; Post-emergence action against ABUTH in % ([16]; 320 g/ha): 80%"

# Further lines, with some results ahead:
Post-emergence action against TRZAS in % ([3]; 20 g/ha),Post-emergence action against ZEAMX in % (crop plant compatibility) [4],"Post-emergence action against ORYSA in % [5, 17]","Post-emergence action against ORYSA in % [5, 18]",Post-emergence action against ZEAMX in % ([4]; 80 g/ha),SMILES,Post-emergence action against PHBPU in % ([1]; dosage 320 g/ha),Post-emergence action against ECHCG in % ([2]; dosage 320 g/ha),"Post-emergence action against VERPE in % ([6]; 320 g/ha, VERPE)",Post-emergence action against VERPE in % ([6]; dosage 80 g/ha),Post-emergence action against MATIN in % ([7]; dosage 320 g/ha),Post-emergence action against SETVI in % ([8]; dosage 320 g/ha),Post-emergence action against DIGSA in % ([9]; 320 g/ha),"Post-emergence action against AMARE in % [10, 20]",Post-emergence action against VIOTR in % ([11]; 80 g/ha),Post-emergence action against VIOTR in % ([11]; 320 g/ha),Post-emergence action against AVEFA in % ([12]; 320 g/ha),Post-emergence action against POLCO in % ([13]; dosage 320 g/ha),Post-emergence action against ALOMY in % ([14]; 320 g/ha),Post-emergence action against ECHCG in % ([2]; dosage 80 g/ha),Post-emergence action against LOLRI in % ([15]; dosage 320 g/ha),other results
0%,20%,0%,0%,–,Cc1ncccc1-n1nc(OCC(=O)O)c(Cl)c1-c1cncc(F)c1 [II-42],90%,90%,90%,80%,80%,90%,80%,90%,80%,90%,90%,80%,90%,–,–,"Post-emergence action against TRZAS in % ([3]; 80 g/ha): 20%; Post-emergence action against ORYSA in % [5, 19]: 0%; Post-emergence action against ALOMY in % ([14]; 80 g/ha): 80%"
10%,20%,10%,–,20%,O=C(COc1nn(-c2ncccc2F)c(-c2ccc(F)nc2)c1C1CC1)OCC1CCCC1 [Example I-251],–,90%,90%,80%,90%,90%,90%,90%,–,90%,90%,–,80%,80%,90%,Post-emergence action against DIGSA in % ([9]; 80 g/ha): 80%; Post-emergence action against LOLRI in % ([15]; dosage 80 g/ha): 90%
20%,0%,0%,10%,20%,O=C(COc1nn(-c2ncccc2F)c(-c2ccc(F)nc2)c1C1CC1)ON=C1CCCC1 [Example I-380],–,90%,90%,80%,–,90%,90%,–,90%,90%,90%,80%,90%,80%,90%,Post-emergence action against ABUTH in % ([16]; 80 g/ha): 80%; Post-emergence action against ABUTH in % ([16]; 320 g/ha): 90%; Post-emergence action against SETVI in % ([8]; dosage 80 g/ha): 80%; Post-emergence action against DIGSA in % ([9]; 80 g/ha): 80%; Post-emergence action against AVEFA in % ([12]; 80 g/ha): 90%; Post-emergence action against LOLRI in % ([15]; dosage 80 g/ha): 90%
20%,–,20%,–,–,O=C(O)COc1nn(-c2ccccn2)c(-c2ccc(F)nc2)c1Cl [Example I-266],90%,90%,90%,80%,90%,80%,90%,90%,80%,90%,–,90%,90%,80%,90%,Post-emergence action against PHBPU in % ([1]; dosage 80 g/ha): 80%; Post-emergence action against MATIN in % ([7]; dosage 80 g/ha): 80%; Post-emergence action against POLCO in % ([13]; dosage 80 g/ha): 80%
20%,10%,–,–,20%,COC(=O)CCOC(=O)COc1nn(-c2ncccc2F)c(-c2ccc(F)nc2)c1C1CC1 [Example I-383],–,90%,90%,80%,80%,80%,90%,80%,80%,90%,80%,–,90%,80%,90%,Post-emergence action against SETVI in % ([8]; dosage 80 g/ha): 80%; Post-emergence action against DIGSA in % ([9]; 80 g/ha): 80%; Post-emergence action against AVEFA in % ([12]; 80 g/ha): 80%; Post-emergence action against LOLRI in % ([15]; dosage 80 g/ha): 80%

# From patent US20240041042A1, “1-(PYRIDYL)-5-AZINYLPYRAZOLE DERIVATIVES, AND THEIR USE FOR CONTROL OF UNDESIRED PLANT GROWTH” (Bayer Aktiengesellschaft, priority 2020, published 2024)
